Counter-ions that a name gives are not always drawn. Like-named read-outs stand apart in the source and are kept apart here.

Our source for the IC50 values is US6716833B2, “Acetylenic α-amino acid-based sulfonamide hydroxamic acid tace inhibitors” (priority 1999, dated 2004).

What all share (assay type): biochemical
For assay [1], the target named is MMP-13 (Homo sapiens, UniProt P45452). Briefly: MMP-13 inhibition (thiopeptide or fluorescent peptide substrate).
Assay [2] deals with T1, MMP-1 (Homo sapiens, UniProt P03956).
T1 sequence (P03956 100-469): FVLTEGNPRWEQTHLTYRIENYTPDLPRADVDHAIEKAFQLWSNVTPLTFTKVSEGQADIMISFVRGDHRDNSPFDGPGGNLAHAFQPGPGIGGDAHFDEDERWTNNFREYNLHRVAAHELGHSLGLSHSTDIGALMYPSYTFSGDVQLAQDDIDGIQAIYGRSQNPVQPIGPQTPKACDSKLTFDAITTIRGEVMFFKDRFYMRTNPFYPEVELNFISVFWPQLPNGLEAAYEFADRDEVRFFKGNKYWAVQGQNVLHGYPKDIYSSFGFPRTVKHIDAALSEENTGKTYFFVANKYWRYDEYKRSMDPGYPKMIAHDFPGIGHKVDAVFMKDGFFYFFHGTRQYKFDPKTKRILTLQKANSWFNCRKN
Briefly: MMP-1 inhibition (thiopeptide or fluorescent peptide substrate). Conditions: read-out: MMP-1 IC50.

In assay [3] the target is TNF-α converting enzyme (TACE) (Homo sapiens, UniProt P78536). Briefly: TACE inhibition (fluorescent peptidyl substrate). Conditions: read-out: TACE IC50.
TNF-α converting enzyme (TACE), sequence (P78536 215-824, species assumed): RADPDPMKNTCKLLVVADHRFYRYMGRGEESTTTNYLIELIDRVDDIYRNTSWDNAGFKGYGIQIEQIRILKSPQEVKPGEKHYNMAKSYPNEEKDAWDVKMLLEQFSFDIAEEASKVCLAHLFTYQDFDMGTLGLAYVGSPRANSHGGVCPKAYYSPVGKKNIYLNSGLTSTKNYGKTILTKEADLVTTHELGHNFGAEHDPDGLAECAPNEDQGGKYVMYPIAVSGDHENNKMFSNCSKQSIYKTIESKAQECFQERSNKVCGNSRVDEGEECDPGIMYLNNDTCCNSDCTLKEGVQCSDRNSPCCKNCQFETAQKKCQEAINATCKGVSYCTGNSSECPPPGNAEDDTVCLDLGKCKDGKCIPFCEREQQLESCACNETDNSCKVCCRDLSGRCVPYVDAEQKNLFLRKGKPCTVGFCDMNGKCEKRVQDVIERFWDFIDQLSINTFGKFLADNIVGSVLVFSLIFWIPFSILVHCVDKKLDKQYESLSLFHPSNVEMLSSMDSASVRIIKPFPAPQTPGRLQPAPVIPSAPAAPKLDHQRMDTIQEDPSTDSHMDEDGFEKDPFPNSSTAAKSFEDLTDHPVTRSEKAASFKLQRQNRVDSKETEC
The target of assay [4] is MMP-9 (Homo sapiens, UniProt P14780). Briefly: MMP-9 inhibition (thiopeptide or fluorescent peptide substrate). Conditions: read-out: MMP-9 IC50.
MMP-9, sequence (P14780 94-707): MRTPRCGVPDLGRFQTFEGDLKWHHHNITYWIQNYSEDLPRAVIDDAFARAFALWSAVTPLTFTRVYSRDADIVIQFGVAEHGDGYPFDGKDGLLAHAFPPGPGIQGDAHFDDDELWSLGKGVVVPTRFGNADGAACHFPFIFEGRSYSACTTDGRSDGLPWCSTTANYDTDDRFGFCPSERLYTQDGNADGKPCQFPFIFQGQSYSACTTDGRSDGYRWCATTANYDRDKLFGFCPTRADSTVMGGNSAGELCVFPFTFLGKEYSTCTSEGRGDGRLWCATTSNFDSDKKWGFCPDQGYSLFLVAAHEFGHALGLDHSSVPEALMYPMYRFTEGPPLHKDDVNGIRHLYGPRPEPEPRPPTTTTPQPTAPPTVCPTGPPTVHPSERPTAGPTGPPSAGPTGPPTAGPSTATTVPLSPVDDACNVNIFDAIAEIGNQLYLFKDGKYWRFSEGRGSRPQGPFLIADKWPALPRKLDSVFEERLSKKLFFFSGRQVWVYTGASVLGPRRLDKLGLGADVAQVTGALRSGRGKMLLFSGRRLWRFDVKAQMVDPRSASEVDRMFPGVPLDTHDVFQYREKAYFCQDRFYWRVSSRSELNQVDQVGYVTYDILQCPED
The mark [5] stands for this setting: Table 11, read-out: MMP-13 IC50.

As to `CC#CCOc1ccc(S(=O)(=O)N2CC[S+]([O-])C(C)(C)C2C(=O)NO)cc1` (single isomer, unassigned) [Example 255], the IC50 (as a rule, the concentration that inhibits the measured activity by half) in assay [1] (Table 9, read-out: MMP-13 IC50) was 8.7 nM; in assay [2] (Table 9), 46 nM; in assay [3] (Table 9), 24 nM; in assay [4] (Table 9) it was 29 nM.
In the case of `CC#CCOc1ccc(S(=O)(=O)N2CC[S+]([O-])C(C)(C)C2C(=O)NO)cc1` (single isomer, unassigned) [Example 256], the IC50 in assay [1] (Table 9, read-out: MMP-13 IC50) amounted to 48 nM; in assay [2] (Table 9), 43 nM; in assay [3] (Table 9) it was 25 nM; in assay [4] (Table 9), 145 nM.
`CC#CCOc1ccc(S(=O)(=O)N(Cc2cccnc2)C(C)C(=O)NO)cc1` (stereo not shown) [Example 33, 2-[(4-but-2-ynyloxy-Benzenesulfonyl)-pyridin-3-ylmethyl-amino]-N-hydroxy-propionamide Hydrochloride]: the half-maximal inhibitory concentration (IC50) in assay [1] (read-out: MMP-13 IC50) stood at 26 nM; in assay [2], 239 nM; in assay [3] it was 5 nM; in assay [4], 65 nM.
Turning to `CCCCC#CCOc1ccc(S(=O)(=O)N2CCSC(C)(C)C2C(=O)NO)cc1` (stereo not shown) [Example 40, 4-(4-hept-2-ynyloxy-Benzenesulfonyl)-2,2-dimethyl-thiomorpholine-3-carboxylic Acid Hydroxyamide], the IC50 was found to be 6.6 nM in assay [1] (Table 9, read-out: MMP-13 IC50); 29 nM in assay [2] (Table 9); 23 nM in assay [3] (Table 9); 7.8 nM in assay [4] (Table 9).
Turning to `CC#CCOc1ccc(S(=O)(=O)N2Cc3ccccc3CC2C(=O)NO)cc1` (stereo not shown) [Example 41, 2-(4-but-2-ynyloxy-Benzenesulfonyl)-1,2,3,4-tetrahydro-isoquinoline-3-carboxylic Acid Hydroxyamide], the IC50 was 10 nM in assay [1] (read-out: MMP-13 IC50), 121 nM in assay [2], 7 nM in assay [3] and 24 nM in assay [4].
For `CC#CCOc1ccc(S(=O)(=O)N2CCCN(C(=O)c3ccccc3)CC2C(=O)NO)cc1` (stereo not shown) [Example 49, 4-Benzoyl-1-(4-but-2-ynyloxy-benzenesulfonyl)-[1,4]diazepane-2-carboxylic Acid Hydroxyamide], the IC50 stood at 65 nM in assay [1] (read-out: MMP-13 IC50), 362 nM in assay [2], 17 nM in assay [3] and 75 nM in assay [4].
Regarding `CC#CCOc1ccc(S(=O)(=O)N2CCN(C)CC2C(=O)NO)cc1` (stereo not shown) [Example 56, 1-(4-but-2-ynyloxy-Benzenesulfonyl)-4-methyl-piperazine-2-carboxylic Acid Hydroxyamide Hydrochloride], the 50% inhibitory concentration (IC50) in assay [1] (read-out: MMP-13 IC50) was 158 nM; in assay [2] it was 3340 nM; in assay [3], 41 nM; in assay [4], 667 nM.
Turning to `CC#CCOc1ccc(S(=O)(=O)N(C)C(C(=O)NO)C(C)(C)SCc2cccnc2)cc1` (stereo not shown) [Example 152, 2-[(4-but-2-ynyloxy-Benenesulfonyl)-methyl-amino]-N-hydroxy-3-methyl-3-(pyridin-3-ylmethylsulfanyl)-butyramide], the IC50 in assay [1] (MMP-13 IC50) was 1.7 nM; in assay [3], 74 nM; in assay [4] it was 3.7 nM.
For `CC#CCOc1ccc(S(=O)(=O)N2CCNCC2C(=O)NO)cc1` (stereo not shown) [Example 214, 1-(4-but-2-ynyloxy-Benzenesulfonyl)-piperazine-2-carboxylic Acidhydroxyamide], the IC50 in assay [1] (read-out: MMP-13 IC50) is 7.6 nM; in assay [3], 23 nM; in assay [4] it was 14 nM.
With `CC#CCOc1ccc(S(=O)(=O)N2CCN(C(=O)N(CC)CC)CC2C(=O)NO)cc1` (stereo not shown) [Example 216, 4-(4-but-2-ynyloxy-Benzenesulfonyl)-piperazine-1,3-dicarboxylic Acid 1-Diethylamide 3-Hydroxyamide], the IC50 in assay [1] (read-out: MMP-13 IC50) came out at 97 nM; in assay [3], 28 nM; in assay [4], 221 nM.
Take `CC#CCOc1ccc(S(=O)(=O)N2CCN(C(=O)OCc3ccccc3)CC2C(=O)NO)cc1` (stereo not shown) [Example 219, Benzyl 4-{[4-(2-Butynyloxy)phenyl]sulfonyl}-3-[(hydroxyamino)carbonyl]-1-piperazinecarboxylate]: the results for the IC50 in assay [1] (read-out: MMP-13 IC50), in assay [2] and in assay [4] were 10 nM, 176 nM and 45 nM, respectively.
In the case of `CC#CCOc1ccc(S(=O)(=O)N2CCN(C(=O)c3cccs3)CC2C(=O)NO)cc1` (stereo not shown) [Example 226, 1-(4-but-2-ynyloxy-Benzenesulfonyl)-4-(thiophene-2-carbonyl)-piperazine-2-carboxylic Acid Hydroxyamide], the IC50 in assay [1] (read-out: MMP-13 IC50) turned out to be 119 nM; in assay [3] it was 12 nM; in assay [4], 251 nM.
For the compound `CC#CCOc1ccc(S(=O)(=O)N2CCN(C(=O)OC)CC2C(=O)NO)cc1` (stereo not shown) [Example 228, 4-(4-but-2-ynyloxy-Benzenesulfonyl)-3-hydroxycarbamoyl-piperazine-1-carboxylic Acid Methyl Ester], the IC50 in assay [1] (read-out: MMP-13 IC50) was 9.2 nM; in assay [3] it was 9 nM; in assay [4], 71 nM.
With `CC1(C)SCCN(S(=O)(=O)c2ccc(OCC#CCN)cc2)C1C(=O)NO` (stereo not shown) [Example 265, 4-({4-[(4-Amino-2-butynyl)oxy]phenyl}sulfonyl)-N-hydroxy-2,2-dimethyl-3-thiomorpholine Carboxamide], the IC50 in assay [1] (Table 10, read-out: MMP-13 IC50) is 7.5 nM; in assay [2] (Table 10), 97 nM; in assay [4] (Table 10), 8.7 nM.
`CC#CCOc1ccc(S(=O)(=O)N2C[C@H](CC(=O)NO)SC(C)(C)[C@@H]2C(=O)NO)cc1` [Example 279, (3S,6S)-4-{[4-(2-Butynyloxy)phenyl]sulfonyl}-N-hydroxy-6-[2-(hydroxyamino)-2-oxoethyl]-2,2-dimethyl-3-thiomorpholinecarboxamide]: the IC50 in assay [1] (setting [5]) came to 4.5 nM; in assay [2] (Table 11), 21 nM; in assay [3] (Table 11), 46 nM.
For the compound `CC#CCOc1ccc(S(=O)(=O)N2C[C@H](CC(N)=O)SC(C)(C)[C@@H]2C(=O)NO)cc1` [Example 280, (3S,6S)-6-(2-Amino-2-oxoethyl)-4-{[4-(2-butynyloxy)phenyl]sulfonyl}-N-hydroxy-2,2-dimethyl-3-thiomorpholinecarboxamide], the IC50 was found to be 29 nM in assay [1] (setting [5]), 35 nM in assay [2] (Table 11) and 42 nM in assay [3] (Table 11).
For `CC#CCOc1ccc(S(=O)(=O)N2C[C@H](CC(=O)N(C)C)SC(C)(C)[C@@H]2C(=O)NO)cc1` [Example 281, (3S,6S)-4-{[4-(2-Butynyloxy)phenyl]sulfonyl}-6-[2-(dimethylamino)-2-oxoethyl]-N-hydroxy-2,2-dimethyl-3-thiomorpholinecarboxamide] the same measures were 23 nM, 50 nM and 130 nM.
With `CC#CCOc1ccc(S(=O)(=O)N2C[C@H](CC(=O)N3CCOCC3)SC(C)(C)[C@@H]2C(=O)NO)cc1` [Example 282, (3S,6S)-4-{[4-(2-Butynyloxy)phenyl]sulfonyl}-N-hydroxy-2,2-dimethyl-6-[2-(4-morpholinyl)-2-oxoethyl]-3-thiomorpholinecarboxamide], the IC50 in assay [1] (setting [5]) was found to be 20 nM; in assay [2] (Table 11), 25 nM; in assay [3] (Table 11), 95 nM.
As for `CC#CCOc1ccc(S(=O)(=O)N2C[C@H](CC(=O)N3CCN(C)CC3)SC(C)(C)[C@@H]2C(=O)NO)cc1` [Example 283, (3S,6S)-4-{[4-(2-Butynyloxy)phenyl]sulfonyl}-N-hydroxy-2,2-dimethyl-6-[2-(4-methyl-1-piperazinyl)-2-oxoethyl]-3-thiomorpholinecarboxamide hydrochloride], the half-maximal inhibitory concentration (IC50) in assay [1] (setting [5]) is 23 nM; in assay [2] (Table 11) it was 28 nM; in assay [3] (Table 11), 143 nM.
As for `CC#CCOc1ccc(S(=O)(=O)N2C[C@H](CC(=O)NCCN(C)C)SC(C)(C)[C@@H]2C(=O)NO)cc1` [Example 284, (3S,6S)-4-{[4-(2-Butynyloxy)phenyl]sulfonyl}-6-(2-{[2-(dimethylamino)ethyl]amino}-2-oxoethyl)-N-hydroxy-2,2-dimethyl-3-thiomorpholinecarboxamide], the IC50 stood at 76 nM in assay [1] (setting [5]), 31 nM in assay [2] (Table 11) and 125 nM in assay [3] (Table 11).
Regarding `CC#CCOc1ccc(S(=O)(=O)N2CCN(Cc3ccccc3)CCC2C(=O)NO)cc1` (stereo not shown) [Example 290, 1-Benzyl-4-{[4-(2-butynyloxy)phenyl]sulfonyl}-N-hydroxy-1,4-diazepane-5-carboxamide], the half-inhibitory concentration (IC50) in assay [2] came to 287 nM; in assay [3], 83 nM; in assay [4], 25 nM.
As for `CC#CCOc1ccc(S(=O)(=O)N2CCNCCC2C(=O)NO)cc1` (stereo not shown) [Example 292, 4-{[4-(2-Butynyloxy)phenyl]sulfonyl}-N-hydroxy-1,4-diazepane-5-carboxamide], the IC50 in assay [1] (read-out: MMP-13 IC50) was 33 nM; in assay [2], 274 nM; in assay [3], 24 nM.
Take `CC#CCOc1ccc(S(=O)(=O)N2CCN(C)CCC2C(=O)NO)cc1` (stereo not shown) [Example 293, 4-{[4-(2-Butynyloxy)phenyl]sulfonyl}-N-hydroxy-1-methyl-1,4-diazepane-5-carboxamide]: the IC50 in assay [1] (MMP-13 IC50) is 21 nM; in assay [2] it was 238 nM; in assay [3] it was 23 nM.
For the compound `CC#CCOc1ccc(S(=O)(=O)N2C=CSC(C)(C)[C@@H]2C(=O)NO)cc1` [Example 379, (3S)-4-{[4-(2-Butynyloxy)phenyl]sulfonyl}-N-hydroxy-2,2-dimethyl-3,4-dihydro-2H-1,4-thiazine-3-carboxamide], the IC50 in assay [1] (setting [5]) turned out to be 271 nM; in assay [2] (Table 11), 316 nM; in assay [3] (Table 11) it was 16 nM.
